# Where two headings read alike, the source gives them in different places.
# Legend:
# coxsackievirus = details: dose-dependent; previous study; cited from earlier work
# SARS-CoV-2 [1] = type: cell-based; details: 10 µM Hydroxychloroquine or Remdesivir, 100 units/ml IFNB1; for reduction in viral N gene RNA/expression compared to untreated infected organoids: human 3D alveolar organoids
# SARS-CoV-2 [2] = type: cell-based; details: 10 µM Hydroxychloroquine or Remdesivir, 100 units/ml IFNB1
# SARS-CoV-2 [3] = type: cell-based; details: for effect on viral N gene RNA / viral replication in proximal ALI cultures (in words): pre-treatment, 10 µM Hydroxychloroquine or Remdesivir, 100 units/ml IFNB1
SMILES,effect on coxsackievirus proliferation in vitro (coxsackievirus),reduction in viral N gene RNA/expression compared to untreated infected organoids (SARS-CoV-2 [1]) [log],reduction in viral N gene RNA/expression compared to untreated infected AT2 cultures (SARS-CoV-2 [2]) [log],reduction in viral N gene RNA abundance (SARS-CoV-2 [3]) [log],effect on viral replication in alveolar organoid cultures (in words) (SARS-CoV-2 [1]; pre-treatment),effect on viral infection/replication in AT2 cultures (in words) (SARS-CoV-2 [2]; pre-treatment),effect on viral N gene RNA / viral replication in proximal ALI cultures (in words) (SARS-CoV-2 [3]),effect on viral N gene RNA / viral replication in proximal ALI cultures (in words) (SARS-CoV-2 [3]; listed as hydroxychloroquine)
NC(=O)c1ncn([C@@H]2O[C@H](CO)[C@@H](O)[C@H]2O)n1 [ribavirin],significantly reduce coxsackievirus proliferation,,,,,,,
CCC(CC)COC(=O)[C@H](C)N[P@](=O)(OC[C@H]1O[C@@](C#N)(c2ccc3c(N)ncnn23)[C@H](O)[C@@H]1O)Oc1ccccc1 [Remdesivir],,9,9,10.2,,,,
CCN(CCO)CCCC(C)Nc1ccnc2cc(Cl)ccc12 (stereo not shown) [Hydroxychloroquine],,2.4,2.4,,significantly reduced viral replication,significantly reduced viral replication,did not show a significant effect,did not have an effect on viral replication

# Reference: patent US20230174946A1, “ORGAN INFECTION MODELS” (priority 2020, published 2023)
